Reference: publication PMC12298629, “New Derivatives of Caracasine Acid with Anti-Leukemic Activity and Limited Effectiveness in Spheroid Cultures” (Pharmaceuticals, 2025)

Experiments:
[1] = system: A549; assay: Cytotoxic MTS assay, A549 2D; type: cell-based; conditions: A549, human tumors 2D, 72 h, median of five assays
Source text: (§1) The cancer cell lines used in the cytotoxic assays were acquired from the American Tissue Culture Collection (ATCC) (Manassas, VA, USA) and maintained as described previously. The MRC-5 and BJ human fibroblasts were used as non-tumoral control cells. The (MRC-5 LD and BJ LD) are also human fibroblast cell lines resistant to doxorubicin. […] The Raji and Ramos cell lines correspond to B-cell leukemia. Other cells, such as U2OS, represent a child osteosarcoma, while HCT116 is a colorectal tumor cell line. (HCT116p53^−/−, Horizon Discovery Ltd., Cambridge, UK) is a similar cell line with its p53 gene knocked down, serving as a model of human cancer frequently associated with a poor prognosis. The cells were maintained in Nunc/corning 80 cm^2 plastic tissue culture flasks and cultured in a cell culture medium according to ATCC or Horizon recommendations (McCoy, DMEM/RPMI 1640 with 5 g/L glucose, 2 mM glutamine, 100 U/mL penicillin, […] streptomycin, 10% fetal calf serum, and NaHCO3). The compounds were freshly dissolved in DMSO. The final concentration of DMSO was 0.01% in the cell culture.
(§2) The in vitro cytotoxicity of compounds (1–7) was assessed using the standard 3-(4,5-dimethyl-thiazol-2yl)-5-(3-carboxymethoxyphenyl)-2-(sulfophenyl)-2H-tetrazolium (MTS). The assay was performed at the Institute of Molecular and Translational Medicine using a robotic platform (High-ResBiosolutions, Beverly, MA, USA). Cell suspensions were prepared and diluted according to the specific cell type and the expected target cell density (25,000–35,000 cells/mL, based on cell growth characteristics). An automatic pipettor (30 μL) was used to add cells into 384-well microtiter plates. All tested compounds were dissolved in 100% DMSO, and four-fold dilutions of the intended test concentrations were added in 0.15 μL aliquots at time zero to the microtiter plate wells by the echo acoustic non-contact liquid handler Echo550 (Labcyte, San Jose, CA, USA). The assays were accomplished in technical duplicates and at least three biological replicates. The cells were incubated with the tested compound for 72 h at 37 °C in a 5% CO2 atmosphere with 100% humidity. At the end of the incubation period, cells were assayed using the MTS test. Aliquots (5 μL) of the MTS stock solution were pipetted into each well and incubated for 1–4 h. After this incubation period, the optical density (OD) was measured at 490 nm using an Envision reader (PerkinElmer, Waltham, MA, USA). Tumor cell survival (TCS) was calculated using the following equation: TCS = (OD drug-exposed well/mean OD control wells) × 100%. The IC50 value, representing the concentration of the compound lethal to 50% of the tumor cells, was calculated from the corresponding dose-response curves using Dotmatics software (Updated version 2022, London, UK). After three days of incubation on the cancer cell lines and normal fibroblasts, the […] (IC50) were obtained. Five assays were performed for each cell line. The standard error of the assays was lower than 10%, as assessed by the triplicate assays.

[2] = system: leukemic cells; assay: Effect on the cell cycle; type: cell-based, human; conditions: comparable concentrations to caracasine acid
[3] = system: BJ LD; assay: Cytotoxic MTS assay, BJ LD fibroblasts (doxorubicin-resistant); type: cell-based; conditions: Fibroblast, doxorubicin-resistant human fibroblasts, 72 h, median of five assays
Source text: as §1, §2

[4] = system: caspase 9; assay: Caspase 9 activity in lysed HCT116 cells from 2D and spheroids; type: cell-based, human; conditions: 12 h; for Caspase 9 activity, 2D culture: HCT116 parental, 25 µM; for Caspase 9 activity, spheroid culture: HCT116 parental spheroids, 25 µM (cisplatin 15 μM)
Procedure: The assay was designed to evaluate the impact of various compounds on caspase activity using a standardized quantity of cell protein lysates after 12 h of incubation. The parental line HCT116 served as the basis for these experiments. Three distinct caspases were examined employing the fluorescence assay kits from Calbiochem (San Diego, CA, USA), specifically a fluorometric caspase-8 assay kit and a fluorimetric caspase-3 assay kit. Additionally, the fluorometric kit from Abcam was utilized to assess caspase-9 activity. Due to the variations in protocols for each caspase, separate plates were prepared for each assay, encompassing both two-dimensional (2D) cell cultures and spheroids. The compound concentrations were established at 25 µM, and assays were conducted in quintuplicate following a 12-h incubation period. The cells were harvested from the plates using the standard trypsin-EDTA solution (Merck Sigma Aldrich, Saint Louis, MO, USA), washed, and counted before lysis, as described in each kit. Cell processing adhered to the guidelines provided by the respective companies, and protein concentration was calculated and standardized using the standard BCA assay. Fluorescent readings were captured using the Enspire apparatus (Perkin-Elmer, MA, USA). Positive controls utilized included staurosporine at a concentration of 5 μM and cisplatin at 15 μM. The kits provided their own standards; however, to normalize all the readings between cultures, types, and treatments, the results were expressed as a percentage relative to the positive control, staurosporine, in 2D culture. […] A total of three separate assays were conducted for each caspase.

[5] = system: HCT116 par spheroids; assay: Spheroid viability assay (CellTiter-Glo 3D), HCT116 parental spheroids; type: cell-based; conditions: HCT-116, human tumors spheroids, 72 h, 100 pM to 50 μM
Procedure: (§3) Spheroid culture aims to analyze the drug’s effect on complex structures resembling solid tumors. The spheroids were prepared using the specific nonadherent plates for spheroid formation (Nunc Sphera, Thermo Fisher, Waltham, MA, USA) according to the simple protocol outlined by the manufacturer. The cell lines HCT116 parental, HCT116KOTp53, A549, and U2OS were cultured at a density of 2500 cells per well using medium containing 10% fetal calf serum and antibiotics: McCoy’s 5A medium for HCT116, F-12K (Kaighn’s Modified) for A549, and Dulbecco’s Modified Eagle Medium (DMEM). The cells were grown in culture for 48 h as recommended by the manufacturer and as described by Das et al. and Muñoz-Garcia et al..
(§4) The cell viability of the treated spheroids was assessed using the kit CellTiter-Glo 3D (Promega Corporation, Madison, WI, USA). The kit is designed to measure ATP as an indicator of viability, generating a luminescent readout that is more sensitive than colorimetric or fluorescence-based methods. The spheroids were cultivated with compounds at concentrations ranging from 100 pM to 50 μM in triplicate for 72 h, and the luminescence was measured using the Enspire apparatus (PerkinElmer). A standard curve was performed for each analysis as recommended by the manufacturer.

[6] = system: MRC-5; assay: Cytotoxic MTS assay, MRC-5 fibroblasts; type: cell-based; conditions: MRC5, human fibroblasts, 72 h, median of five assays
Source text: as §1, §2

[7] = system: A549 spheroids; assay: Spheroid viability assay (CellTiter-Glo 3D), A549 spheroids; type: cell-based; conditions: A549, human tumors spheroids, 72 h, 100 pM to 50 μM
Procedure: as §3, §4

[8] = system: normal human leukocytes; design: method as in PMID 31449809, PMID 35430982; conditions: 0.1 nM to 50 μM in 0.01% DMSO; cited from earlier work

IC50 [7]	Compound	IC50 [1]	Effect on the cell cycle [2]	IC50 [3]	Caspase 9 activity, 2D culture [4]	IC50 [5]	IC50 [6]	Caspase 9 activity, spheroid culture [4]	Effect on primary leukocytes [8]
> 50 µM	C=C(C)C1CCC23CC(CCC2C1(C)CCC(=O)O)C(C)C3=O (single isomer, unassigned; ent-3) [Compound 5, Ent-3,4-Seco-15-Oxo-Kaur-4(19)-en-3-Oic Acid]	> 50 µM	no effect	> 50 µM	did not induce caspase activity	> 50 µM	> 50 µM		
> 50 µM	C=C(C)C1CCC23CC(CCC2C1(C)CCC(=O)OC(C)=O)C(C)C3=O (single isomer, unassigned; ent-3) [Compound 6, Ent-3,4-Seco-15-Oxo-Kaur-4(19)-en-Acetic Anhydride]	> 50 µM	no effect	> 50 µM	did not induce caspase activity	> 50 µM	> 50 µM		
> 50 µM	C=C1C(=O)C23CCC(C(=C)C)C(C)(CCC(=O)OC)C2CCC1C3 (stereo not drawn) [Compound 2, Caracasine]	8.39 µM		7.42 µM		> 50 µM	6.84 µM	absence of caspase activity	no significant effect
> 50 µM	C=C1C(=O)C23CCC(C(=C)C)C(C)(CCC(=O)OC(C)=O)C2CCC1C3 (stereo not drawn) [Compound 7, Caracasine-Acetic Anhydride]	3.72 µM		7.63 µM		> 50 µM	6.45 µM	absence of caspase activity	
